{"source": "patent US20260027103A1", "about": "“PHARMACEUTICAL COMPOSITIONS COMPRISING A QUINOLONE COMPOUND FOR IRRITABLE BOWEL SYNDROME” (OTSUKA PHARMACEUTICAL CO., LTD., priority 2022, published 2026)", "key": {"[1]": {"tested_on": "restraint stress (RS) rat model", "test": "Restraint stress (RS) rat model: body weight, food intake, fecal pellet output", "type": "in vivo, Sprague-Dawley (SD) rats", "from_the_text": "Male Sprague-Dawley (SD) rats, weighting 200-250 g were purchased from Charles River Laboratories Beijing and housed in an SPF grade animal facility of OSRI in individual ventilated cages (IVC), with 3 rats per cage. All animals were maintained with a 12-hour light/dark cycle and had free access to rodent chow and water. All animal study procedures were in accordance with Animal Welfare Regulations and approved by the Institutional Animal Care and Use Committee (IACUC) of OSRI.\nRats (from group #2 and group #3) were submitted to a 2-hour restraint in a plastic cylinder daily in the PM for 10 consecutive days (D1 to D10). Rats from the control group (group #1) remained in their individual cages, undisturbed throughout the entire experiment. After 3 days of repeated RS modeling, from D4 to D10, the rats from group #2 and group #3 were treated in the morning (4h ahead of PM restraint) with vehicle (5% AG) and the test substance (2.5 mg/kg) respectively for 7 consecutive days. Fecal pellet output was used to estimate distal colonic motility as a validated index (Hong S et al., Gut 2009, 58:202-210). During the 2-hour restraint period, the rat's fecal pellet output was collected and counted, same for the rats in control group during the same 2-hour mock observation period."}, "histamine": {"tested_on": "histamine", "test": "Urine histamine level by ELISA in RS model", "type": "in vivo, Sprague Dawley Rats", "details": "rat, 2.5 mg/kg PO, day 7 (4 days post treatment), p<0.01 vs RS group, FIG. 6", "method": "(§1) Sprague Dawley Rats were submitted to a 2h restraint in a plastic cylinder daily for 7 consecutive days as described above. In control group, the rats were remained in an individual cage, undisturbed, throughout the experiment.\nUrine samples were collected every day after the restraint. A plastic dish was placed underneath restraint tube and the urine sample was collected. It is immediately transferred into a tube and stored at-800C until further analysis. Histamine was measured with the Histamine ELISA Kit ((CAT #: D751012, BBI) according to the manufacturer's instructions as follows.\nCalculate the required number of slats in advance, and take out the kit 30 minutes before the test and restore it to room temperature. • 2. Add 50 μL of standard working liquid and test sample to each reaction hole. The standard needs to be re-drilled. 50 μL of biotin-labeled histamine antibody working solution was added to each reaction well immediately, and the plate was sealed and incubated at 37° C. for 45 min. • 3. […] OD value was measured with 450 nm wavelength of enzyme label instrument. • 9. Draw a standard curve with the concentration of standard substance as the horizontal coordinate and absorbance as the vertical coordinate. • 10. Statistical significance was either calculated by two-tailed T-test (visceral sensitivity on day 3) or one-way ANOVA using Dunnett's multiple comparison. […]"}, "[2]": {"tested_on": "restraint stress (RS) rat model", "test": "Visceromotor response to colorectal distention in RS model", "type": "in vivo, Sprague Dawley Rats", "details": "2.5 mg/kg PO, day 7 (4 days post dose), p<0.05 vs RS group, FIG. 5", "method": "as §1\nColonic distension—A polyethylene balloon (3 cm long, 1.5 cm max. diameter) was secured to tubing attached to a blood pressure meter to be used to perform colonic distension. The balloon was lubricated and placed into the rat's distal colon so that the tip of the balloon was 2 cm proximal to the anus. Using the blood pressure meter distension device, rats were restrained in a plastic containment device and allowed to acclimate for 10 min before testing. The rats received phasic distension (0-100 mmHg in 5-mmHg ascending increments) of the colon until the first contraction of the testicles, tail or abdominal musculature occurred. This visualization was performed by three independent observers. […] Compliance of the colon was not measured given the rapid distension protocol used in this study. The colonic distensions were repeated three times with 5-min interstimulus intervals and the mean pressures at the nociceptive threshold were recorded for each rat.\nStatistical significance was either calculated by two-tailed T-test (visceral sensitivity on day 3) or one-way ANOVA using Dunnett's multiple comparison. P<0.05 was considered statistically significant."}}}
{"smiles": "Cc1c(-c2cnc(N)c(C#N)c2)c(F)cc2c(=O)c(C(=O)O)cn(C3CC3)c12", "note": "[OPS-2071, 1-cyclopropyl-6-fluoro-1,4-dihydro-8-methyl-7-(2-amino-3-cyano-5-pyridyl)-4-oxo-3-quinoline-carboxylic acid]", "values": [{"measurement": "body weight / body weight change (BWC) % in RS-IBS model", "setting": "[1]; 2.5 mg/kg PO QD for 7 days from D4, group #3 vs. RS vehicle group #2, FIGS. 1 and 2", "value": "body weight drop caused by restraint stress is improved"}, {"measurement": "fecal pellet output during 2-hour restraint", "setting": "[1]; 2.5 mg/kg PO from day 4, group #3 vs. group #2, FIG. 3", "value": "a decrease of the fecal pellet output was observed"}, {"measurement": "food intake (appetite) in RS model", "setting": "[1]; 2.5 mg/kg PO, monitored from 3 days post treatment initiation, group #3 vs. group #2", "value": "protective effect on decreased appetite"}, {"measurement": "urine histamine level", "setting": "histamine", "value": "decreased"}, {"measurement": "visceral sensitivity (visceromotor response to colorectal distention, mmHg)", "setting": "[2]", "value": "a decrease in visceral sensitivity"}]}
